Consider 12 compounds from PubChem BioAssay AID330 (DTP/NCI, 2004).

The subject of the experiment is P388 leukemia ip, CD2F1 mice, survival T/C. Briefly: NCI In Vivo Anticancer Drug Screen. Data for tumor model P388 Leukemia (intraperitoneal) in CD2F1 (CDF1) mice. The following applies: endpoint: median survival time, higher = longer survival. A digest of the protocol: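 Mice carrying the transplanted tumor received test compound or vehicle. Survival was recorded in each group, and the value is the treated-group measurement divided by that of the vehicle-treated control group.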

Setting [1] is: dose: 100.0 mg/kg/injection, schedule: Q01DX009 (ip), vehicle: saline with Tween-80.
[2] abbreviates: dose: 50.0 mg/kg/injection, schedule: Q01DX005 (ip), vehicle: saline with Tween-80.
The mark [3] stands for this setting: dose: 100.0 mg/kg/injection, schedule: Q01DX005 (ip), vehicle: saline with Tween-80.
The mark [4] stands for this setting: dose: 200.0 mg/kg/injection, schedule: Q01DX005 (ip), vehicle: saline with Tween-80.

Where “and” joins values, the source holds several entries; their conditions need not be identical. Equal entries are not always repeated. Inconclusive results and toxic doses are left out.

Turning to `COc1cc2c(cc1OC)C(OC)N(C)c1c-2ccc2cc3c(cc12)OCO3` (centres undefined), the T/C is 122 % of control (dose: 2.0 mg/kg/injection, schedule: Q01DX009 (ip), vehicle: water); 109 % of control (dose: 2.0 mg/kg/injection, schedule: Q03HX008 (ip), vehicle: water); 104 % of control (dose: 4.0 mg/kg/injection, schedule: Q01DX009 (oral), vehicle: water); 104 % of control (dose: 4.0 mg/kg/injection, schedule: Q01DX009 (sc), vehicle: water); 122 % of control (dose: 4.0 mg/kg/injection, schedule: Q03HX008 (ip), vehicle: water); 100 % of control (dose: 8.0 mg/kg/injection, schedule: Q01DX009 (oral), vehicle: water). For the same compound, the T/C (dose: 8.0 mg/kg/injection, schedule: Q01DX009 (sc), vehicle: water) was 100 % of control; the T/C (dose: 8.0 mg/kg/injection, schedule: Q04DX003 (ip), vehicle: water) is 119 % of control; the T/C (dose: 16.0 mg/kg/injection, schedule: Q01DX001 (ip), vehicle: water) was 107 % of control; the T/C (dose: 16.0 mg/kg/injection, schedule: Q01DX009 (oral), vehicle: water) was 101 % of control; the T/C (dose: 16.0 mg/kg/injection, schedule: Q01DX009 (sc), vehicle: water) is 97 % of control; the T/C (dose: 16.0 mg/kg/injection, schedule: Q04DX003 (ip), vehicle: water) was 122 % of control. In addition, the T/C (dose: 16.0 mg/kg/injection, schedule: Q08DX002 (ip), vehicle: water) was 109 % of control; the T/C (dose: 25.0 mg/kg/injection, schedule: Q01DX009 (ip), vehicle: other) was 158 % of control; the T/C (dose: 32.0 mg/kg/injection, schedule: Q01DX001 (ip), vehicle: water) was 104 % of control; the T/C (dose: 32.0 mg/kg/injection, schedule: Q01DX009 (ip), vehicle: saline) is 90 % of control; the T/C (dose: 32.0 mg/kg/injection, schedule: Q01DX009 (oral), vehicle: water) was 101 % of control; the T/C (dose: 32.0 mg/kg/injection, schedule: Q01DX009 (sc), vehicle: water) is 88 % of control. Also, the T/C is 124 % of control (dose: 32.0 mg/kg/injection, schedule: Q04DX003 (ip), vehicle: water); 119 % of control (dose: 32.0 mg/kg/injection, schedule: Q08DX002 (ip), vehicle: water); 118 % of control (dose: 37.5 mg/kg/injection, schedule: Q01DX009 (ip), vehicle: saline with Tween-80); 154 % of control (dose: 44.0 mg/kg/injection, schedule: Q04DX003 (ip), vehicle: saline with Tween-80); 106 % of control (dose: 64.0 mg/kg/injection, schedule: Q01DX001 (ip), vehicle: water); 109 % of control (dose: 64.0 mg/kg/injection, schedule: Q01DX009 (oral), vehicle: water). The T/C was 106 % of control (dose: 64.0 mg/kg/injection, schedule: Q04DX003 (ip), vehicle: water); 109 % of control (dose: 64.0 mg/kg/injection, schedule: Q08DX002 (ip), vehicle: water); 154 % of control and 181 % of control (dose: 66.0 mg/kg/injection, schedule: Q04DX003 (ip), vehicle: saline with Tween-80); 86 % of control (dose: 75.0 mg/kg/injection, schedule: Q01DX009 (ip), vehicle: saline with Tween-80); 90 % of control (dose: 150.0 mg/kg/injection, schedule: Q04DX003 (ip), vehicle: saline with Tween-80).

Take `Oc1ccc2c(c1)Cc1cc3ccccc3nc1-2`: the T/C by setting is: (dose: 25.0 mg/kg/injection, schedule: Q01DX009 (ip), vehicle: Klucel (hydroxypropylcellulose) (HPC)) 101 % of control; (dose: 50.0 mg/kg/injection, schedule: Q01DX009 (ip), vehicle: Klucel (hydroxypropylcellulose) (HPC)) 98 % of control; (dose: 100.0 mg/kg/injection, schedule: Q01DX009 (ip), vehicle: Klucel (hydroxypropylcellulose) (HPC)) 94 % of control; (dose: 200.0 mg/kg/injection, schedule: Q01DX009 (ip), vehicle: Klucel (hydroxypropylcellulose) (HPC)) 103 % of control.

Consider `CCCCCCCCCCCCO[P+](=O)OCCCCCCCCCCCC`, for which the T/C (dose: 50.0 mg/kg/injection, schedule: Q01DX009 (ip), vehicle: saline sonified) was 110 % of control; the T/C (dose: 66.0 mg/kg/injection, schedule: Q01DX009 (ip), vehicle: saline with Tween-80) was 109 % of control; the T/C (dose: 100.0 mg/kg/injection, schedule: Q01DX009 (ip), vehicle: saline sonified) was 110 % of control; the T/C under setting [1] was 100 % of control and 95 % of control; the T/C (dose: 100.0 mg/kg/injection, schedule: Q04DX003 (ip), vehicle: saline with Tween-80) is 95 % of control; the T/C (dose: 150.0 mg/kg/injection, schedule: Q01DX009 (ip), vehicle: saline with Tween-80) is 100 % of control. Also, the T/C (dose: 200.0 mg/kg/injection, schedule: Q01DX009 (ip), vehicle: saline with Tween-80) was 90 % of control; the T/C (dose: 200.0 mg/kg/injection, schedule: Q04DX003 (ip), vehicle: saline with Tween-80) is 91 % of control; the T/C (dose: 400.0 mg/kg/injection, schedule: Q01DX009 (ip), vehicle: saline with Tween-80) was 90 % of control; the T/C (dose: 400.0 mg/kg/injection, schedule: Q04DX003 (ip), vehicle: saline with Tween-80) is 95 % of control.

Turning to `CCOC(=O)C(=Cc1ccc(OC)c(OC)c1)C(=O)OCC`, the T/C was 110 % of control under setting [2], 102 % of control under setting [3] and 103 % of control under setting [4].

Take `Oc1ccc(C(O)C2CCCCN2)cc1O` (centres undefined): the T/C is 99 % of control (dose: 25.0 mg/kg/injection, schedule: Q01DX009 (ip), vehicle: saline); 108 % of control (dose: 50.0 mg/kg/injection, schedule: Q01DX009 (ip), vehicle: saline); 103 % of control (dose: 100.0 mg/kg/injection, schedule: Q01DX009 (ip), vehicle: saline); 108 % of control (dose: 200.0 mg/kg/injection, schedule: Q01DX009 (ip), vehicle: saline).

Take `CC1=CCCC2C1(C)CCC(C)C2(C)Cc1cc(O)ccc1O` (centres undefined): the T/C reads like this: (dose: 12.5 mg/kg/injection, schedule: Q01DX009 (ip), vehicle: saline with Tween-80) 100 % of control; (dose: 25.0 mg/kg/injection, schedule: Q01DX009 (ip), vehicle: saline with Tween-80) 103 % of control; (dose: 50.0 mg/kg/injection, schedule: Q01DX009 (ip), vehicle: saline with Tween-80) 107 % of control; (dose: 100.0 mg/kg/injection, schedule: Q01DX001 (ip), vehicle: saline with Tween-80) 97 % of control; under setting [1], 94 % of control; (dose: 200.0 mg/kg/injection, schedule: Q01DX001 (ip), vehicle: saline with Tween-80) 99 % of control. Also, the T/C (dose: 400.0 mg/kg/injection, schedule: Q01DX001 (ip), vehicle: saline with Tween-80) was 88 % of control.

With `CCC1(N(C)C)C(=O)NC(=O)N(C2CCCCC2)C1=O` (centres undefined), the T/C is 98 % of control (dose: 60.0 mg/kg/injection, schedule: Q01DX005 (ip), vehicle: Klucel (hydroxypropylcellulose) (HPC)); 96 % of control (dose: 120.0 mg/kg/injection, schedule: Q01DX005 (ip), vehicle: Klucel (hydroxypropylcellulose) (HPC)); 91 % of control (dose: 240.0 mg/kg/injection, schedule: Q01DX005 (ip), vehicle: Klucel (hydroxypropylcellulose) (HPC)).

Take `O=C(O)c1cc(Br)cc(Br)c1O.O=C(O)c1cc(Br)cc(Br)c1O.[Cu]`: the T/C (dose: 15.0 mg/kg/injection, schedule: Q01DX005 (ip), vehicle: saline with Tween-80) was 92 % of control; the T/C (dose: 30.0 mg/kg/injection, schedule: Q01DX005 (ip), vehicle: saline with Tween-80) is 94 % of control; the T/C (dose: 60.0 mg/kg/injection, schedule: Q01DX005 (ip), vehicle: saline with Tween-80) was 101 % of control and 92 % of control.

Consider `CCSc1nc2c(N)nc(N)nc2[nH]c1=O`, for which the T/C was 99 % of control (dose: 100.0 mg/kg/injection, schedule: Q04DX003 (ip), vehicle: Klucel (hydroxypropylcellulose) (HPC)) and 86 % of control (dose: 200.0 mg/kg/injection, schedule: Q04DX003 (ip), vehicle: Klucel (hydroxypropylcellulose) (HPC)).

Consider `O=c1[nH]ncc2c1Sc1cn[nH]c(=O)c1S2`, for which the T/C reads like this: under setting [2], 97 % of control; under setting [3], 104 % of control; under setting [4], 100 % of control.

Take `O=C(Nc1cccc(Cl)c1)OCC(COC(=O)Nc1cccc(Cl)c1)(COC(=O)Nc1cccc(Cl)c1)[N+](=O)[O-]`: the T/C by setting is: under setting [2], 95 % of control; under setting [3], 98 % of control; under setting [4], 100 % of control.

As to `CSC(SC)=C1C(=O)NC(Cc2ccccc2)C1=O` (centres undefined), the T/C runs as follows: (dose: 6.25 mg/kg/injection, schedule: Q01DX005 (ip), vehicle: saline with Tween-80) 104 % of control; (dose: 12.5 mg/kg/injection, schedule: Q01DX005 (ip), vehicle: saline with Tween-80) 112 % of control; (dose: 25.0 mg/kg/injection, schedule: Q01DX005 (ip), vehicle: saline with Tween-80) 119 % of control.
